Source: patent publication US6740680B1, “Pharmaceutical compositions to tetrac and methods of use thereof” (Becton Pharma, Inc., priority 1999, dated 2004)
Read-outs that look alike come from different tables or passages of the source. Values belong to the compound of their own block, whether it stands above or below them.

Experiments:
[1] = test system: hypothyroid rats; assay: Heart weight and heart/body weight in hypothyroid rats infused with Tetrac or T4; type: in vivo, rat; settings: hypothyroid rats, mean ± SEM; for Heart: continuous minipump infusion
Protocol: (§1) Seventy-nine male SIVZ rats were purchased from the breeder (Institut für Labortierkunde des Universität Zürich, Zürich, Switzerland). They were rendered hypothyroid by a single injection of [^131I]Na (100 μCi/rat) and before and throughout the experiment 0.02% 2-mercapto-1-methylimidazol (MMI) was added to drinking water. In order to have an euthyroid control group of similar weight and identical age, 10 rats received only MMI in the drinking water and 2 weeks before implanting the minipumps, MMI was withdrawn. Osmotic minipumps (secretion rate 0.25 μl/hour, duration 14 days) were implanted intraperitoneally (i.p.) 2 months after the injection of [^131I]Na. The minipumps were filled with T4 or Tetrac dissolved in 0.05 N NaOH, 2% BSA and 100,000 cpm [^125I]T4 or [^125I]Tetrac as control of their secretion rates. The infusion lasted 13 days. 0, 1.5, 4.5, 13.5 and 40.5 nmol Tetrac/day/100 g or 0.5, 1.5, 4.5 and 13.5 nmol T4/day/100 g bodyweight (BW) (n=4/dose) were infused. An euthyroid control group was included. The animals were weighed every 2 days. Rats were sacrificed by decapitation and blood was collected and stored at […] until use. Tissues (liver, heart, brown adipose tissue, cerebral cortex and pituitary) were removed rapidly, frozen in liquid nitrogen and stored at […] until use.

[2] = test system: TSH; assay: Serum TSH in hypothyroid rats infused with Tetrac or T4; type: in vivo, rat; settings: for Serum TSH: hypothyroid rats, mean ± SEM
Protocol: Seventy-nine male SIVZ rats were purchased from the breeder (Institut für Labortierkunde des Universität Zürich, Zürich, Switzerland). […] The infusion lasted 13 days. […] An euthyroid control group was included. The animals were weighed every 2 days. Rats were sacrificed by decapitation and blood was collected and stored at […] until use. Tissues (liver, heart, brown adipose tissue, cerebral cortex and pituitary) were removed rapidly, frozen in liquid nitrogen and stored at […] until use.
Hornone assays. […] Endocrinol. […] Serum TSH measurements were performed with reagents kindly provided by the National Pituitary Program, NIAMDD, NIH (Bethesda, USA).

[3] = Serum T3, T4, Triac and Tetrac levels in infused rats; type: in vivo; settings: male, SIVZ, rat, intraperitoneal, mean ± SEM, read-out: Serum T4
Protocol: as §1
Hornone assays. Total serum T4, T3, Tetrac, Triac and TSH levels (intra-assay coefficient of variation 7 to 10%, inter-assay coefficient of variation 12 to 15%) were measured using the method of Burger, A., Sakoloff, C., Staeheli, V., Vallotton, M. D., and Ingbar, S. H. Acta. Endocrinol. (Copenh.) 80: 58-69 (1975). Serum TSH measurements were performed with reagents kindly provided by the National Pituitary Program, NIAMDD, NIH (Bethesda, USA). The detection limits were 0.80 ng TSH/ml; 9.5 pmol T4/ml; 0.16 pmol T3/ml; 10 pmol Tetrac/ml and 0.52 pmol Triac/ml.

[4] = test system: Monodeiodinase type 1; assay: Monodeiodinase type 1 activity in liver and heart homogenates of infused rats; type: in vivo, rat; settings: Liver, infused rats, adjusted group mean at the mean Ln (TSH) concentration
Protocol: as §1
(§2) Monodeiodinase type 1 and 2 activities. Monodeiodinase type 1 and type 2 activities were determined in tissue homogenates by measuring the release of radioiodide from [^125I]rT3 according to the method of Leonard and Rosenberg (Leonard, J. L. et al. Endocrinology (1980) 106: 444-451).
(§3) Monodeiodinase type 1 activity was measured in liver homogenates using 1 μM rT3 and 1 mM DTT with 10 min of incubation, whereas for heart, 0.01 μM rT3 and 10 mM DTT with 1 hour of incubation. Monodeiodinase type 2 activity was measured in brown adipose tissue (BAT) and cerebral cortex using 1 nM rT3, 10 mM DTT and 1 mM propylthiouracil (PTU) with 1 hour of incubation. Protein concentrations were measured by the method of Bradford (Bio-Rad Laboratories GmbH, Munich, Germany) with bovine gammaglobulin as the protein standard. In order to study the effect of circulating Tetrac on the enzyme activities, 2 rats were injected intraperitoneally with 10 μCi ^125I Tetrac and killed 6 hours later. The tissue homogenates were extracted with 3 volumes of ethanol-NH3 (97:3). After 10 minutes centrifugation at 15,000 g, the supernatant was vacuum dried and applied to TLC (Merck 254, Toluol, acetic acid, water: 2:2:1). In order to calculate the tissue concentrations, the highest serum Tetrac levels were used (406 pmol/ml). The calculated tissue concentrations were: liver: 1.9, heart: 2.29 and brain cortex: 0.47 fluol Tetrac/μg protein.

[5] = test system: Monodeiodinase type 2; assay: Monodeiodinase type 2 activity in brain cortex and brown adipose tissue of infused rats; type: in vivo, rat; settings: for Residual monodeiodinase type 2 activity, adjusted mean: infused rats, remaining activity, adjusted group mean at the mean Ln (TSH) concentration
Protocol: as §1, §2, §3

[6] = test system: monodeiodinase type 1 mRNA; assay: Northern blot, hepatic monodeiodinase type 1 mRNA; type: in vivo, rat; settings: Liver, infused rats, adjusted group mean at the mean Ln (TSH) concentration
Protocol: as §1
(§4) Total RNA extraction and Northern Blot hybridization Total RNA was extracted with the method of Chomczynski and Sacchi (Chomczynski, P. and Sacchi, N. Anal. Biochem. (1987) 162: 156-159). […]
(§5) The amount of labeled mRNA was quantified by scanning laser densitometry (Phosphorimager, Molecular Dynamics; Sunnyvale, USA). Variations in RNA loading and membrane transfer were corrected by densitometric quantification of a negative photograph of 28S and 18S ribosomal RNA bands from ethidium bromide stained RNA gels. […]

[7] = test system: α-MHC mRNA; assay: Northern blot, α-MHC mRNA in heart; type: in vivo, rat
Protocol: as §1, §4, §5

[8] = test system: β-MHC mRNA; assay: Northern blot, β-MHC mRNA in heart; type: in vivo, rat; settings: infused rats, adjusted group mean at the mean Ln (TSH) concentration
Protocol: as §1, §4, §5

[9] = test system: GH mRNA; assay: Northern blot, growth hormone mRNA in pituitary; type: in vivo, rat; settings: infused rats, adjusted group mean at the mean Ln (TSH) concentration
Protocol: as §1, §4, §5

[10] = test system: Cynomologus monkeys
Protocol: Preparation of Tetrac for injection. Tetrac from Rhône-Poulenc and Henning Laboratory were compared. Tetrac powder was dissolved in sterile 0.1 N NaOH at 2 mg/ml. This solution was made before the beginning of each treatment period and stored at 4° C. in polypropylene tubes, protected from light. Each solution for injection was prepared daily after dilution in the vehicle (0.9% NaCl) containing 5% monkey serum (v/v), and was stored at room temperature and protected from light, according to the storage conditions of the test substance.
Animals. One male and one female purpose bred Cynomologus monkeys Macaca fascicularis were supplied by Centre de Recherches Primatologiques, Port Louis, Mauritius. […] The animals were individually housed in stainless steel cages and a metallic tray was placed under each cage in order to collect urine. The animals were fed daily with approximately 200 grams each of U.A.R. 107 C pelleted diet (batch Nos. 61106, 61207 and 70317, U.A.R., Villemoisson-sur-Orge, France), distributed about 2 hours after treatment with Tetrac. No contaminants were known to have been present in the diet, drinking water or bedding material at levels which may be expected to have interfered with or prejudiced the outcome of the study.
Weeks 1 to 3 and weeks 7 to 9: the animals received the test substance TETRAC provided either by Rhone-Poulenc or by Henning Laboratories over a three-week period.
Weeks 4 to 6 and weeks 10 to 12: a washout period of three weeks was observed.
Administration of Tetrac. Tetrac was administered via intramuscular injection into the thigh muscle once a day, at approximately the same time each day, several days a week over a three week period. The quantity of tetrac administered to each animal was adjusted according to the most recently recorded body weight. A constant dosage-volume of 0.5 ml/kg was used.
Morbidity and mortality. The animals were checked at least twice a day, for mortality and signs of morbidity.
Body weight. Body weight was recorded for each animal once before the beginning of the treatment period, on the first day of the treatment period, and at least once a week until the end of the study.
Food consumption. Food consumption was estimated for each animal by calculating the difference between the quantity given and that remaining the next morning. This was estimated daily during the week before treatment and throughout the study. Food consumption was expressed as a percentage of the quantity given. Whenever fasting was required, the food was removed at the end of the day and the estimation of consumption was made at that time, food being made available for approximately five hours on that day.

[11] = infusion 13.5 nmol/day/100 g BW
[12] = Female, treatment period (3 weeks, 75 μg/kg/day i.m.)
[13] = Female, washout period (3 weeks)
[14] = Male, treatment period (3 weeks, 75 μg/kg/day i.m.)

concentration at 13 days ([3]; T4 infusion 0.5 nmol/day/100 g BW): 43.1 ± 2.8 nM
concentration at 13 days ([3]; T4 infusion 1.5 nmol/day/100 g BW): 77.1 ± 9.4 nM
concentration at 13 days ([3]; T4 infusion 4.5 nmol/day/100 g BW): 130 ± 9.5 nM
concentration at 13 days ([3]; T4 infusion 13.5 nmol/day/100 g BW): 353 ± 31.7 nM
SMILES: N[C@@H](Cc1cc(I)c(Oc2cc(I)c(O)c(I)c2)c(I)c1)C(=O)O [T4, L-thyroxine, reference compound]
Heart ([1]; 0.5 nmol/day/100 g BW): 0.86 ± 0.06 g
Heart ([1]; 1.5 nmol/day/100 g BW): 0.90 ± 0.04 g
Heart ([1]; 4.5 nmol/day/100 g BW): 1.19 ± 0.03 g
Heart ([1]; 13.5 nmol/day/100 g BW): 1.32 ± 0.11 g
Heart/BW (%) ([1]; infusion 0.5 nmol/day/100 g BW): 0.35 ± 0.02%
Heart/BW (%) ([1]; infusion 1.5 nmol/day/100 g BW): 0.34 ± 0.01%
Heart/BW (%) ([1]; infusion 4.5 nmol/day/100 g BW): 0.45 ± 0.02%
Heart/BW (%) [1, 11]: 0.54 ± 0.02%
Serum TSH ([2]; infusion 0.5 nmol/day/100 g BW): 110.2 ± 10.8 ng/mL
Serum TSH ([2]; infusion 1.5 nmol/day/100 g BW): 11.8 ± 3.0 ng/mL
Serum TSH ([2]; infusion 4.5 nmol/day/100 g BW): 1.0 ± 0.2 ng/mL
Serum TSH [2, 11]: <0.8 ng/mL
Serum TSH concentration, mean of treatment group ([2]; mean over all dose levels of the treated rats, p=<0.04): 31 ng/mL
Residual Monodeiodinase type 1 activity, adjusted mean [4]: 180
Residual monodeiodinase type 2 activity, T4/Tetrac (activity of T4 in % of Tetrac) ([5]; BAT): 42%
Residual monodeiodinase type 2 activity, adjusted mean ([5]; BAT): 11.8
Residual monodeiodinase type 2 activity, T4/Tetrac (activity of T4 in % of Tetrac) ([5]; Brain Cortex): 18%
Residual monodeiodinase type 2 activity, adjusted mean ([5]; Brain Cortex): 5.02
Residual Monodeiodinase type 1 mRNA, adjusted mean [6]: 5.1 arbitrary units
α-MHC mRNA, T4/Tetrac (activity of T4 in % of Tetrac) [7]: 21%
α-MHC mRNA, adjusted mean ([7]; infused rats, adjusted group mean at the mean Ln (TSH) concentration): 1.13 arbitrary units
β-MHC mRNA, adjusted mean [8]: 495 arbitrary units
GH mRNA, adjusted mean [9]: 28644 arbitrary units

SMILES: O=C(O)Cc1cc(I)c(Oc2cc(I)c(O)c(I)c2)c(I)c1 [Tetrac from Henning Laboratory, 3,3′,5,5′-tetraiodothyroacetic acid]
Body weight gain (%) ([10]; Female, treatment period): g (+9%)
Food consumption 75%: days of observation/number of days in period ([10]; Female, treatment period): 75%: 13/21
Food consumption 100%: days of observation/number of days in period ([10]; Female, treatment period): 100%: 8/21
Food consumption (in words) ([10]; Female, treatment period): slightly lower food consumption
Body weight gain [10, 12]: +300 g
Body weight gain (%) ([10]; Female, washout period): g (+3%)
Food consumption 75%: days of observation/number of days in period ([10]; Female, washout period): 75%: 3/21
Food consumption 100%: days of observation/number of days in period ([10]; Female, washout period): 100%: 18/21
Body weight gain [10, 13]: +100 g
Body weight gain (%) ([10]; Male, treatment period): g (+3%)
Food consumption 100%: days of observation/number of days in period ([10]; Male, treatment period): 100%: 21/21
Body weight gain [10, 14]: +200 g
Food consumption 100%: days of observation/number of days in period ([10]; Male, washout period): 100%: 21/21
Body weight gain ([10]; Male, washout period (3 weeks)): 0 g

SMILES: O=C(O)Cc1cc(I)c(Oc2cc(I)c(O)c(I)c2)c(I)c1 [Tetrac from Rhône-Poulenc, 3,3′,5,5′-tetraiodothyroacetic acid]
Body weight gain (%) ([10]; Female, treatment period): g (+8%)
Food consumption 75%: days of observation/number of days in period ([10]; Female, treatment period): 75%: 7/21
Food consumption 100%: days of observation/number of days in period ([10]; Female, treatment period): 100%: 14/21
Body weight gain [10, 12]: +300 g
Food consumption 75%: days of observation/number of days in period ([10]; Female, washout period): 75%: 5/21
Food consumption 100%: days of observation/number of days in period ([10]; Female, washout period): 100%: 16/21
Body weight gain [10, 13]: 0 g
Body weight gain (%) ([10]; Male, treatment period): g (+2%)
Food consumption 75%: days of observation/number of days in period ([10]; Male, treatment period): 75%: 1/21
Food consumption 100%: days of observation/number of days in period ([10]; Male, treatment period): 100%: 20/21
Body weight gain [10, 14]: +100 g
Body weight gain (%) ([10]; Male, washout period): g (+2%)
Food consumption 100%: days of observation/number of days in period ([10]; Male, washout period): 100%: 21/21
Body weight gain ([10]; Male, washout period (3 weeks)): +100 g
